The data set in a line: Human HepG2 cell viability assay in 384 well format. Conditions: HepG2 cells, read-out: Inhibition. In kind it is toxicity, cell-based. Details: dose 125 nL, time 70.5 hour; cytotoxicity at 70.5 h: concentration not given beside the values.
For `Fc1cnc(N2CCCC3(CCN(c4ncccn4)C3)C2)nc1` (configuration not stated), the cytotoxicity at 70.5 h is 13.7%. As for `CN(c1ccccc1C(=O)O)S(=O)(=O)c1cccc2cccnc12`, the figure is -6.45%; as for `Cc1cc(C(F)(F)F)nn1CCCNC(=O)C1CCCC1`, -1.45%. For `CN1CCN(C(=O)Cn2nc(C(F)(F)F)c(Br)c2C2CC2)CC1`, the cytotoxicity at 70.5 h is -10.9%. For the compound `O=C(c1ccc(Cn2cc(Br)cn2)cc1)N1CCOCC1`, the cytotoxicity at 70.5 h is -7.67%. As to `CN1CCN(C(=O)c2ccc(Cn3cc(Br)cn3)cc2)CC1`, the cytotoxicity at 70.5 h is -5.22%.

`CCCN1CCN(C(=O)c2ccc(Cn3cc(Br)cn3)cc2)CC1`: the cytotoxicity at 70.5 h was -7.06%. Turning to `CCOCCCNC(=O)c1nn(CC)cc1Br`, the cytotoxicity at 70.5 h is 25.1%. As for `O=C(c1ccn(COc2ccc(F)cc2)n1)N1CCCC1`, the figure is -7.86%; as for `CC(C(=O)Nc1ccccn1)n1ccc(C(F)(F)F)n1` (configuration not stated), -15.3%; as for `Cc1cccc(NC(=O)C(C)Oc2ccc3c(c2)OCO3)n1` (configuration not stated), -3.5%. On to `Cc1nn(CC(=O)N2CCN(c3ccc(F)cc3)CC2)c(C)c1Cl`, for which the cytotoxicity at 70.5 h amounted to 26.3%. Regarding `COc1ccc(N2CCN(C(=O)Cn3nc(C)c(Cl)c3C)CC2)cc1`, the cytotoxicity at 70.5 h was 4.1%.

In the case of `CCS(=O)(=O)Nc1ccc2oc(C)c(C(C)=O)c2c1`, the cytotoxicity at 70.5 h stood at 28.3%.

`CC/N=c1/c(NC(=O)NCCOC)c(O)oc2ccccc12`: the cytotoxicity at 70.5 h came to 30.4%. Consider `CC/N=c1/c(NC(=O)C2CC2)c(O)oc2ccccc12`, for which the cytotoxicity at 70.5 h was determined as 35.8%. On to `CCCN(c1ccccc1C(=O)O)S(=O)(=O)c1cccc2cccnc12`, for which the cytotoxicity at 70.5 h was -10.2%. As to `Cc1nn(C)cc1CN(C)C(=O)c1cccnc1`, the cytotoxicity at 70.5 h stood at 8.22%. In the case of `Cc1nn(C)cc1CN(C)C(=O)c1cnccn1`, the cytotoxicity at 70.5 h stood at 1.11%. Turning to `CCn1nccc1CNC(=O)C1CCC1`, the cytotoxicity at 70.5 h is -2.95%. Take `CCn1nccc1CNC(=O)C1CCCCC1`: the cytotoxicity at 70.5 h is -0.635%. Turning to `CCn1nccc1CNC(=O)C1CCCO1` (configuration not stated), the cytotoxicity at 70.5 h was 0.767%. Regarding `CCn1cc(Cl)c(C(=O)NCCOC)n1`, the cytotoxicity at 70.5 h is -0.484%. As for `CC(C(=O)N1CCN(C)CC1)n1cc(Br)cn1` (configuration not stated), the figure is -1.37%. As for `CCCN1CCN(C(=O)CCn2nc(C(F)(F)F)c(Br)c2C)CC1`, the cytotoxicity at 70.5 h is -10.4%.

`Cc1cnc(NC(=O)C(C)Oc2ccc3c(c2)OCO3)s1` (configuration not stated): the cytotoxicity at 70.5 h is -7.91%. As for `Cc1ccc(CNC(=O)c2ccc(F)cc2)o1`, the cytotoxicity at 70.5 h is -8.9%. In the case of `O=C(c1n[nH]cc1Br)N1CCOCC1`, the cytotoxicity at 70.5 h was -4.31%. On to `CC(Cn1cc(Br)cn1)C(=O)Nc1ccc(Cl)cn1` (configuration not stated), for which the cytotoxicity at 70.5 h came to 4.53%. As for `CCn1cc(Cl)c(C(=O)NCc2cnn(C)c2)n1`, the figure is -0.0278%. Take `CN(C)C(=O)c1ccn(COc2ccccc2Cl)n1`: the cytotoxicity at 70.5 h is -2.41%. For the compound `Cc1ccc(F)cc1NC(=O)c1[nH]ncc1Br`, the cytotoxicity at 70.5 h was -7.98%. Turning to `CCn1cc(Br)c(C(=O)NCc2ccccc2)n1`, the cytotoxicity at 70.5 h is 1.89%. As to `CCn1nc(C)cc1NC(=O)CCn1nc(C)c(Br)c1C`, the cytotoxicity at 70.5 h was 10.2%. For `Cc1ccc(NC(=O)CCc2cnn(C)c2)cc1F`, the cytotoxicity at 70.5 h is -8.37%. As for `CCOc1ccc(NC(C)=O)cc1S(=O)(=O)Nc1nccs1`, the figure is 22.7%; as for `CCOc1ccc(NC(C)=O)cc1S(=O)(=O)Nc1cc(C)on1`, -6.08%. Take `Cc1cc(C)n(C2=NC(NCCCO)c3c(sc4c3CCCC4)N2)n1` (configuration not stated): the cytotoxicity at 70.5 h was -11.9%. `COc1cccc(NC(=O)C(C)Cn2cc(Cl)cn2)c1` (configuration not stated): the cytotoxicity at 70.5 h is -7.91%. In the case of `Nc1nnnn1NCc1cccc(Cl)c1Cl`, the cytotoxicity at 70.5 h was 21.9%. Take `CC(C)N(C)Cc1n[nH]c2c1CCN(C(=O)c1ccc[nH]1)C2`: the cytotoxicity at 70.5 h turned out to be 21%. For `Cc1cnc(NS(=O)(=O)c2ccccc2)s1`, the cytotoxicity at 70.5 h is -10%.
